Laboratory results published in ChEMBL document CHEMBL1938384, “Lysine demethylases inhibitors” (J Med Chem, 2011).
Activity calls are given as the source filed them. The rule behind the calls is not given here.

How the values were obtained:
[1] = target: T1, Amine oxidase [flavin-containing] A (Homo sapiens, UniProt P21397)
T1 sequence (P21397 whole entry): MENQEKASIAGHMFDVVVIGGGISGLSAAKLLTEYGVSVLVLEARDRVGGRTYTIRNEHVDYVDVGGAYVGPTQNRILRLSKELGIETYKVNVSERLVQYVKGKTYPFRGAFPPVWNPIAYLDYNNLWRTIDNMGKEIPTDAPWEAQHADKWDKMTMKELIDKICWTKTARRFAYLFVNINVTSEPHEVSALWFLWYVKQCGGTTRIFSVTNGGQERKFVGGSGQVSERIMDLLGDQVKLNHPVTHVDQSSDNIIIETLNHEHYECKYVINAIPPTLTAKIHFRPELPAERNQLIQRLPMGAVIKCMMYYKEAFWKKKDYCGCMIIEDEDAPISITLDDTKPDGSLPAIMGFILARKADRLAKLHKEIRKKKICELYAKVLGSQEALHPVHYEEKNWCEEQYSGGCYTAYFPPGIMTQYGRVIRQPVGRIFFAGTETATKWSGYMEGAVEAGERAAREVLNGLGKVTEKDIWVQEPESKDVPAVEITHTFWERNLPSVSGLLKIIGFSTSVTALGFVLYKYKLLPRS

[2] = target: T2, Amine oxidase [flavin-containing] B (Homo sapiens, UniProt P27338)
T2 sequence (P27338 whole entry): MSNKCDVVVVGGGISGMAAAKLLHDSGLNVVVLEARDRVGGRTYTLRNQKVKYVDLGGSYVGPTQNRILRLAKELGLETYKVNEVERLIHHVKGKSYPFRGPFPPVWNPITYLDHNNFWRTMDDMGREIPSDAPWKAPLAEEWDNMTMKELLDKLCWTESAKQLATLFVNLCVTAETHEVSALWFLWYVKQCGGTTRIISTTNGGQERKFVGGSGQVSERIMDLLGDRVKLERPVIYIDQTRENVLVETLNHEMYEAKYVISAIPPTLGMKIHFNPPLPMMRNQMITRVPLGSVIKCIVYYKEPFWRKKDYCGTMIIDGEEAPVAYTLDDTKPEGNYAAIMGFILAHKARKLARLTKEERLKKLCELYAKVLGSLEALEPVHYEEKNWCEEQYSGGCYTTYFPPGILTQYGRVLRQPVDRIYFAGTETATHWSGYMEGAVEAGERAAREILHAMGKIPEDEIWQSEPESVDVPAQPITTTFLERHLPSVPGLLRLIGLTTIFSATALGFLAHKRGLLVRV

Egl nine homolog 1 [3] = target: T3, Egl nine homolog 1 (Homo sapiens, UniProt Q9GZT9)
Target sequence in this assay (Q9GZT9 2-426 limits assumed): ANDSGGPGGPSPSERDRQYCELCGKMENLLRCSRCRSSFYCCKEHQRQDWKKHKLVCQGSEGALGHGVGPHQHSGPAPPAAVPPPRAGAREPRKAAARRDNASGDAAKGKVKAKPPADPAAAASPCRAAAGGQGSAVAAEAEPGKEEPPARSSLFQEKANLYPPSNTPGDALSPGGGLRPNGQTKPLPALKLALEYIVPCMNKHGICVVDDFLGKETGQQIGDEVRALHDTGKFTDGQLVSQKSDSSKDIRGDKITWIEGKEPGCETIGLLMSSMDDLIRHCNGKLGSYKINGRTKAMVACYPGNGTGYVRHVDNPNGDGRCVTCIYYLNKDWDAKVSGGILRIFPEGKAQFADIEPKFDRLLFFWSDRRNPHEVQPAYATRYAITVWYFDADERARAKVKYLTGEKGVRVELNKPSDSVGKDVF

[4] = target: T4, Lysine-specific demethylase 2A (Homo sapiens, UniProt Q9Y2K7)
T4 sequence (Q9Y2K7 whole entry): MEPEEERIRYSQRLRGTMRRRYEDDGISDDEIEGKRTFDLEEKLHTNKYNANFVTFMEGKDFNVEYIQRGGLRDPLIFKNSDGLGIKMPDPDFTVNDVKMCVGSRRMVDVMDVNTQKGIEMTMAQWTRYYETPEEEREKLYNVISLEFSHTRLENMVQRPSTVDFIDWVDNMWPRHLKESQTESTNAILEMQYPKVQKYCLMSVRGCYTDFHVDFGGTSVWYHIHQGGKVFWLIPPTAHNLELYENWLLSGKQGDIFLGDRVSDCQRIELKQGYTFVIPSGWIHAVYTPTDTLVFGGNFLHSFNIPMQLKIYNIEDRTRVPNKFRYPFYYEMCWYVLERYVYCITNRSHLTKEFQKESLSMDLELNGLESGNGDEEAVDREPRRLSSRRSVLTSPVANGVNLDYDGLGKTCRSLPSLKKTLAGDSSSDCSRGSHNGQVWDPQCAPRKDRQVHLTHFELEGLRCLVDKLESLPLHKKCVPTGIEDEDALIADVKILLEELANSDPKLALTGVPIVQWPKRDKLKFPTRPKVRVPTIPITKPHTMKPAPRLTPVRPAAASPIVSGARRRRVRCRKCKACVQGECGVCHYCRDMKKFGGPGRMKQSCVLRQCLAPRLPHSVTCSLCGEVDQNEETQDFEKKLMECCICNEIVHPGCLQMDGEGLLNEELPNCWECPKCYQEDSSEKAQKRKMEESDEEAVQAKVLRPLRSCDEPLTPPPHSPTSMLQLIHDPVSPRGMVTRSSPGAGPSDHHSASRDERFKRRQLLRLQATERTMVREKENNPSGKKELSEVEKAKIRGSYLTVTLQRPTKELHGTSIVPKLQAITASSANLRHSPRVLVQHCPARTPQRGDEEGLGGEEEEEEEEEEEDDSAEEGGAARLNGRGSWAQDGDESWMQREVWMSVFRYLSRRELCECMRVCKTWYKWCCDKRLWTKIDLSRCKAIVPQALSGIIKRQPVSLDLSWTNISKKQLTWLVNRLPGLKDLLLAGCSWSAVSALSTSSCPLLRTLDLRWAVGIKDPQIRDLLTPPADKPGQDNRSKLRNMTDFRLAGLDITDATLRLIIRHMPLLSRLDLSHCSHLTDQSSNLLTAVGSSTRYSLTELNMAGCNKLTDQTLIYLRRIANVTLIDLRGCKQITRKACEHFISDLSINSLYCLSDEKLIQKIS

[5] = target: Lysine-specific demethylase 6B (Homo sapiens, UniProt O15054); experiment: Inhibition of KDM6B
[6] = target: Histone lysine demethylase PHF8 (Homo sapiens, UniProt Q9UPP1); experiment: Inhibition of KDM7B
Prolyl hydroxylase EGLN3 = Prolyl hydroxylase EGLN3 (Homo sapiens, UniProt Q9H6Z9); experiment: Inhibition of PHD3
[7] = target: T5, Lysine-specific demethylase 4A (Homo sapiens, UniProt O75164)
T5 sequence (O75164 whole entry): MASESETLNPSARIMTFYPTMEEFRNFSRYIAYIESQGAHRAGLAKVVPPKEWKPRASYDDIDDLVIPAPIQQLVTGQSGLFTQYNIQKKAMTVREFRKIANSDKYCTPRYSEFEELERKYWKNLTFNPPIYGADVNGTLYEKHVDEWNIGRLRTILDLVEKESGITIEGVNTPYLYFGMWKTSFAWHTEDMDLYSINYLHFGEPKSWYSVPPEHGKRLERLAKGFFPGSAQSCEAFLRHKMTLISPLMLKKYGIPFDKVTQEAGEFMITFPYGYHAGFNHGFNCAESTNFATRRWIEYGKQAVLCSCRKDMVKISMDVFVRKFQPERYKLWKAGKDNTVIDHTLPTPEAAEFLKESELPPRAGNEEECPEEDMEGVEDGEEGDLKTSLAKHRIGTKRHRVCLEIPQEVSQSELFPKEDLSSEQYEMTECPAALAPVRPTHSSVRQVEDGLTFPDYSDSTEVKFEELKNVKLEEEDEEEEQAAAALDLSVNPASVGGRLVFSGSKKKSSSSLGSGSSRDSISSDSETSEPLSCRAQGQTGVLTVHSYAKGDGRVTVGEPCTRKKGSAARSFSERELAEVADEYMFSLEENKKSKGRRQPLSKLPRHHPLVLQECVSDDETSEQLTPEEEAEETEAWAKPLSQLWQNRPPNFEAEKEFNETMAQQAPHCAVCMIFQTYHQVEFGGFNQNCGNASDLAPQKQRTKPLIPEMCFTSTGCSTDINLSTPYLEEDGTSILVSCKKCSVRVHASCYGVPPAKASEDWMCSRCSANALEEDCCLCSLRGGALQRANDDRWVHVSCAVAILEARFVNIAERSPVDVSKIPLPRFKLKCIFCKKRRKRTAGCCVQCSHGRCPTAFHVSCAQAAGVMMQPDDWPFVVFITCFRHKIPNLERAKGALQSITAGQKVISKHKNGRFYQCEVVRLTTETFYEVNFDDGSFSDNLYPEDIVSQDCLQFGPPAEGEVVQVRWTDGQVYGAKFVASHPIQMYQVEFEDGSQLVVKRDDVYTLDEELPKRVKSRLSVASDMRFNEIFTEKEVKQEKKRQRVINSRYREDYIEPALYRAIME

[8] = target: T6, Lysine-specific demethylase 4C (Homo sapiens, UniProt Q9H3R0)
T6 sequence (Q9H3R0 whole entry): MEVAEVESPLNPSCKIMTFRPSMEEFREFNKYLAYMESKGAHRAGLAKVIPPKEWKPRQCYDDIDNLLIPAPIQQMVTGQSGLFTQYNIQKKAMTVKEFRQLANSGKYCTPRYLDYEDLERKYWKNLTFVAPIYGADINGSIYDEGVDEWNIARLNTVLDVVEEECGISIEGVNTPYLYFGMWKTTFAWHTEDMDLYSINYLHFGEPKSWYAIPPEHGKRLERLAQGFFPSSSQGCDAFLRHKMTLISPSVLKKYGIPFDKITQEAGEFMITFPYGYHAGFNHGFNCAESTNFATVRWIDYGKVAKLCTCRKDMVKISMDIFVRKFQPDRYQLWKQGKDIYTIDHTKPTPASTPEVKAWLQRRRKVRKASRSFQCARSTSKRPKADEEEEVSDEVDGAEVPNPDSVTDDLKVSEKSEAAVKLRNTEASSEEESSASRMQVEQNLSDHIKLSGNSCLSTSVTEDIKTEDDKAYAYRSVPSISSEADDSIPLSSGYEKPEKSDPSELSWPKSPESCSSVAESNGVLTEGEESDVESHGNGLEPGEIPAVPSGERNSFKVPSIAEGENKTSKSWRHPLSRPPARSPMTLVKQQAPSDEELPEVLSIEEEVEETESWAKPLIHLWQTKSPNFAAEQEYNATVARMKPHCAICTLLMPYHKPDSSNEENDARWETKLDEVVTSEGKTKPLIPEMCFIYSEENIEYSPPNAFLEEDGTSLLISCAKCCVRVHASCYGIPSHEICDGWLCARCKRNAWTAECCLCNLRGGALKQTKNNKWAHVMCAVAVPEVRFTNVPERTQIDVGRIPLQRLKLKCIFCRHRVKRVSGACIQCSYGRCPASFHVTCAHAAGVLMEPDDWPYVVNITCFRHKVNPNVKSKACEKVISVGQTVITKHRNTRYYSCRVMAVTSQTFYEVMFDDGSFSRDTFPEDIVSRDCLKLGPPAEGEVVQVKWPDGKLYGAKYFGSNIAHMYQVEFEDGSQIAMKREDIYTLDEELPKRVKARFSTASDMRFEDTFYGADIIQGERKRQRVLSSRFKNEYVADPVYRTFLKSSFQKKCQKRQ

Egl nine homolog 1 [9] = target: T3, Egl nine homolog 1; remark: listed apart in the source
Target sequence in this assay (Q9GZT9 whole entry): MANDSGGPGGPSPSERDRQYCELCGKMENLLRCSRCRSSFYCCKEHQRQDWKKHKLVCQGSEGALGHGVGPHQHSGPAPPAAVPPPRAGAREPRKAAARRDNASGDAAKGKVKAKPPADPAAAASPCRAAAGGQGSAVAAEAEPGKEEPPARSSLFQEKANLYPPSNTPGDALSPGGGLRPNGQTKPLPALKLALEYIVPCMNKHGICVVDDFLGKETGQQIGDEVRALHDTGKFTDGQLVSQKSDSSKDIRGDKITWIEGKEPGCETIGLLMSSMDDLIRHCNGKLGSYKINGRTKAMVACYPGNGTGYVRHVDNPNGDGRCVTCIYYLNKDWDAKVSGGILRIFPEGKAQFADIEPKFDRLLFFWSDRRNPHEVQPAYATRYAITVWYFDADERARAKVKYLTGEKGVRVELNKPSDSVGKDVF

[10] = target: Hypoxia-inducible factor 1-alpha inhibitor (Homo sapiens, UniProt Q9NWT6)
Prolyl hydroxylase EGLN2 = Prolyl hydroxylase EGLN2 (Homo sapiens, UniProt Q96KS0)
Chain of Prolyl hydroxylase EGLN2 (Q96KS0 whole entry): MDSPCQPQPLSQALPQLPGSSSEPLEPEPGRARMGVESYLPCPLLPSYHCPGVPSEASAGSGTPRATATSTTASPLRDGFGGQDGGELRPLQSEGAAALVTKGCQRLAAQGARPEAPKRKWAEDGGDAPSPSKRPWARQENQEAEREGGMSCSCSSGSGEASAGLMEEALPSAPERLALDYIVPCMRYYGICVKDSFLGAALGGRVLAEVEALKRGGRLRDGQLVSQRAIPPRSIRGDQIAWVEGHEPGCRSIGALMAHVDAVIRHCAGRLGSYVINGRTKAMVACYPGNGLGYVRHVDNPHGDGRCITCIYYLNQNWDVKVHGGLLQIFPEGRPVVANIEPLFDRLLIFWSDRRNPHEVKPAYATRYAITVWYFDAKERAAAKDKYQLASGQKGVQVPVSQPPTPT

Chain of Hypoxia-inducible factor 1-alpha inhibitor (Q9NWT6 whole entry): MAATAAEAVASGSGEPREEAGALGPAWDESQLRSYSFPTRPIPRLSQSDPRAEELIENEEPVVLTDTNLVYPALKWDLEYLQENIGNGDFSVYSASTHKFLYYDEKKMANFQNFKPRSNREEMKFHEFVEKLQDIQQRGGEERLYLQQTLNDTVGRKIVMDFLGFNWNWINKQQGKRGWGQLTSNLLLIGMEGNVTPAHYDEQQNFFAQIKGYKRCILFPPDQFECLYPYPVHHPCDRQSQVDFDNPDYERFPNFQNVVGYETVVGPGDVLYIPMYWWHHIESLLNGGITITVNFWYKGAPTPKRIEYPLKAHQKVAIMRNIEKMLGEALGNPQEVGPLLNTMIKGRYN
Chain of Histone lysine demethylase PHF8 (Q9UPP1 whole entry): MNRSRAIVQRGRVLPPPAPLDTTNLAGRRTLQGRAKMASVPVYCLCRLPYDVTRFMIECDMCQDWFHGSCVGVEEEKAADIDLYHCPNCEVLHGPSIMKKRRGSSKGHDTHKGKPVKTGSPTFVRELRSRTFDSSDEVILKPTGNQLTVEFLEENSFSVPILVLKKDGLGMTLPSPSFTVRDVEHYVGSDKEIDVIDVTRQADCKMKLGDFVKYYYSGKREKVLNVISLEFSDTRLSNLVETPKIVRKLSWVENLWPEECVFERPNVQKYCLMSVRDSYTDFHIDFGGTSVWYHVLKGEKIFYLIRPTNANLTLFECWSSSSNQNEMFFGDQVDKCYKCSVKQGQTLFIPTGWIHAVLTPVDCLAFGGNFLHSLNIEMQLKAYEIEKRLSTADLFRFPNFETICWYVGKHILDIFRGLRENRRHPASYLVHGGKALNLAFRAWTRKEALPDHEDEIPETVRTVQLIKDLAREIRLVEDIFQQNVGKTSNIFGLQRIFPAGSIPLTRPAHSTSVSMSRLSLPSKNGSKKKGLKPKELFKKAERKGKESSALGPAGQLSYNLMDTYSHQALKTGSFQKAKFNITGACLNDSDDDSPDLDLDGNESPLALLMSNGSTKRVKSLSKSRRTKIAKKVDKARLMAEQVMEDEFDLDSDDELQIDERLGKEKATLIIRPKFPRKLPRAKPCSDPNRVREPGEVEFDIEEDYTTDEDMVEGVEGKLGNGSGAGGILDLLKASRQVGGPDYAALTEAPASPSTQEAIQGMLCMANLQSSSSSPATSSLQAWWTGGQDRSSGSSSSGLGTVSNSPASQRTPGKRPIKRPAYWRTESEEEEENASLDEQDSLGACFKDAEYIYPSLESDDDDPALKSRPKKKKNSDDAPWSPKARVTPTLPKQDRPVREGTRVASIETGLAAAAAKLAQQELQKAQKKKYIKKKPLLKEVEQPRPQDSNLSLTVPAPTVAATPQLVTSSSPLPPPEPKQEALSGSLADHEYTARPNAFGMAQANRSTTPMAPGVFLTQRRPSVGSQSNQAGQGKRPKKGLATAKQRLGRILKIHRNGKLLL
Chain of Prolyl hydroxylase EGLN3 (Q9H6Z9 whole entry): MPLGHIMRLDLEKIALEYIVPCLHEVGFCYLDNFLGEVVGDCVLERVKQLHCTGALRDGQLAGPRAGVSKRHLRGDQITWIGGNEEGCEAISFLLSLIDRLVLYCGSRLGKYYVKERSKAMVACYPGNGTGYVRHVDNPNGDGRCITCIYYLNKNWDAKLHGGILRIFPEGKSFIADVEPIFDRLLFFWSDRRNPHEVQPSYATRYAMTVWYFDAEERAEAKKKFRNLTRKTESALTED
Chain of Lysine-specific demethylase 6B (O15054 whole entry): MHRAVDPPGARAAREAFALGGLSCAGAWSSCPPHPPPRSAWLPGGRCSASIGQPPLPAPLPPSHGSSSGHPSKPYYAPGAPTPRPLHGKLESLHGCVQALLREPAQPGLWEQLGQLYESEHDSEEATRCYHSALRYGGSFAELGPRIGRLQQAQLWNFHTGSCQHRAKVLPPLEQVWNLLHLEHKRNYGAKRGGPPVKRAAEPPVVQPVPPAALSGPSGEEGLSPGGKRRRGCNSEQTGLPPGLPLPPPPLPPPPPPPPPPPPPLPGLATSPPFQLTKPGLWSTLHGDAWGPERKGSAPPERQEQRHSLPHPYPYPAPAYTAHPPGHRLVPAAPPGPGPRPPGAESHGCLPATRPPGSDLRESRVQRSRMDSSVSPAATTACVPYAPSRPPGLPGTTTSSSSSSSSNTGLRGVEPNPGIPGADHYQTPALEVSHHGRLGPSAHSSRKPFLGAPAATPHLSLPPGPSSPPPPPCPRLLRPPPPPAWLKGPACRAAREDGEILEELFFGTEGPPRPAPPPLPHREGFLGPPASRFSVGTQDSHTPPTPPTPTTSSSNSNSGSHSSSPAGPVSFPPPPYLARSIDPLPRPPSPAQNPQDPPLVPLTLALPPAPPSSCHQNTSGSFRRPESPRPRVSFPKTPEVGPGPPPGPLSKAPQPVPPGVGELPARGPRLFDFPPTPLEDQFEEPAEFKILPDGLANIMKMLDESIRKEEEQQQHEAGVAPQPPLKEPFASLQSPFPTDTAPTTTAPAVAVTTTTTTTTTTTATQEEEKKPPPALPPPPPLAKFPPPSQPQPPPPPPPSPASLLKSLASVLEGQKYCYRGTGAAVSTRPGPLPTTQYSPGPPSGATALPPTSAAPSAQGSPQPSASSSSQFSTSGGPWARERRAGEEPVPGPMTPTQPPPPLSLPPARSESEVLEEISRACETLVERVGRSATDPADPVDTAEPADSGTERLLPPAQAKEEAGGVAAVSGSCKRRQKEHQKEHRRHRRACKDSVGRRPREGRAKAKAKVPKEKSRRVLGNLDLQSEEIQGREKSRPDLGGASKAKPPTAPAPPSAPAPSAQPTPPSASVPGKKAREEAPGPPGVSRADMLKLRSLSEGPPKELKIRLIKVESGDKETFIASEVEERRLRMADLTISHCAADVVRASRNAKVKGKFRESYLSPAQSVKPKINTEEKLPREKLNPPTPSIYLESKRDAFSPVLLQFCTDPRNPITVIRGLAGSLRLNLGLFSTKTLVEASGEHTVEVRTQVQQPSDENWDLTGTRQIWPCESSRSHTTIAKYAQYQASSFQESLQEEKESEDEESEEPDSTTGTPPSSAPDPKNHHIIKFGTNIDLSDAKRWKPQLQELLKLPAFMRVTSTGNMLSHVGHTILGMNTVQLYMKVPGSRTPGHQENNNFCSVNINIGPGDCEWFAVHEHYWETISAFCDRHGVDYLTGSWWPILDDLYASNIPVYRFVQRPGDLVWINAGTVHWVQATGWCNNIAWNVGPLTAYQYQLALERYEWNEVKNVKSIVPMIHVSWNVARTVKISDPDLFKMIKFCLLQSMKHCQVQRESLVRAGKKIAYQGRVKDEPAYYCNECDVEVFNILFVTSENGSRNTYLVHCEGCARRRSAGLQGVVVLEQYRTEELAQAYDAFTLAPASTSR

Q: `N[C@@H]1C[C@H]1c1ccc(OCC[C@H](NC(=O)c2ccccc2)C(=O)NCc2ccccc2)cc1` was tested. Which Ki [1] did it give?
A: The Ki was 250 µM.

Q: What about the Ki [2] of the same compound?
A: The Ki was 1700 µM.

Q: `O=C(O)C(=O)N[C@H](Cc1ccc(OS(=O)(=O)c2ccc(Br)cc2)cc1)C(=O)O` was tested. Which inhibition (Egl nine homolog 1 [3]) did it give?
A: The inhibition was “inactive”.

Q: With `O=C(O)CC[C@H](O)C(=O)O` as the compound, how does the IC50 [4] read?
A: Its IC50 is 48 µM.

Q: `NC1CC1c1ccc(NC(=O)C(Cc2ccccc2)NC(=O)OCc2ccccc2)cc1` (configuration not stated) was tested. Which Ki [2] did it give?
A: Its Ki is greater than 133 µM.

Q: What does the source list for `NC1CC1c1cccc(OCC[C@H](NC(=O)c2ccccc2)C(=O)NCc2ccccc2)c1` (some centres not stated)?
A: Ki [1]: 230 µM; Ki [2]: 740 µM

Q: With `O=C(O)CC[C@@H](O)C(=O)O` as the compound, how does the IC50 [4] read?
A: Its IC50 is 106 µM.

Q: What does the source list for `NC1CC1c1cc(F)cc(F)c1OCc1ccccc1` (configuration not stated)?
A: Ki [1]: 110 µM; Ki [2]: 17 µM

Q: For `O=C(O)/C=C/C(=O)N(O)CCCCNCc1ccc(COC(=O)Nc2cccc3ccccc23)cc1`, which IC50 [5] is on record?
A: The IC50 was 43 µM.

Q: What about the IC50 [6] of the same compound?
A: The IC50 was 10 µM.

Q: And the IC50 (Prolyl hydroxylase EGLN3)?
A: Its IC50 is 31 µM.

Q: What about the IC50 [7] of the same compound?
A: Its IC50 is 4.3 µM.

Q: What about the IC50 [8] of the same compound?
A: The IC50 was 3.4 µM.

Q: And the IC50 (Egl nine homolog 1 [9])?
A: Its IC50 is 83 µM.

Q: And the IC50 [10]?
A: Its IC50 is 22 µM.

Q: And the IC50 (Prolyl hydroxylase EGLN2)?
A: The IC50 was 54 µM.

Q: For `O=C(O)c1ccnc(C(=O)O)c1Nc1ccccc1F`, which IC50 (Egl nine homolog 1 [9]) is on record?
A: Its IC50 is greater than 400 µM.

Q: How did the IC50 [7] turn out when `S=C(SSC(=S)N1CCCC1)N1CCCC1` [BIS(PYRROLIDINYLTHIOCARBONYL)DISULFIDE] was run?
A: The IC50 was 3.3 µM.

Q: Which results are given for `O=C(O)c1ccnc2c(O)cccc12`?
A: IC50 (Egl nine homolog 1 [9]): 14 µM; IC50 [10]: 21 µM
